# Read-outs that look alike come from different tables or passages of the source.
# Assays:
# rA1 adenosine receptor = target: T1, rA1 adenosine receptor (Rattus norvegicus, UniProt P25099); assay: Binding affinity at rA1 adenosine receptor
# T1 sequence (P25099 1-326): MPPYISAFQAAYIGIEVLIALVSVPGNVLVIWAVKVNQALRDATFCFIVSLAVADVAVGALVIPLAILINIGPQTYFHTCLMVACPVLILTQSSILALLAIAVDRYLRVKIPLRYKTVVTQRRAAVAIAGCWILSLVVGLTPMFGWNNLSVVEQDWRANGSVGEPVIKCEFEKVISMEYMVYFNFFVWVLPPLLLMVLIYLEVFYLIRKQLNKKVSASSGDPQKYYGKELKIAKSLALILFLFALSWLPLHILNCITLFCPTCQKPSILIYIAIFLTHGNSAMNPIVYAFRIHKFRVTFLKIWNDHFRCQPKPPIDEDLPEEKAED
# rA2A adenosine receptor = rA2A adenosine receptor (Rattus norvegicus, UniProt P30543); assay: Binding affinity at rA2A adenosine receptor
# [1] = system: human pancreatic cancer Panc-1; assay: MTT growth inhibitory assay, Panc-1; type: cell-based
# Procedure: (§1) One of the growth inhibitory assays is the MTT assay. Cells (1000-1500 cells/well) are seeded in a 96-well micro culture plate in a total volume of 100 μl/well. After overnight incubation in a humidified incubator at 37° C. with 5% CO2-95% air, chemotherapeutic drug solutions diluted with culture medium at various concentrations are added in the amount of 100 μl to each well. The plates are placed in a humidified incubator at 37° C. with 5% CO2-95% air for 7-10 days. The plates are then centrifuged briefly and 100 μl of the growth medium is removed. Cell cultures are incubated with 50 μl of MTT [3-(4,5-dimethylthiazol-2-yl)-2,5-diphenyl-tetrazolium bromide] reagent (1 mg/ml in Dulbecco's phosphate-buffered saline) for 4 hr at 37° C. The resultant purple formazan precipitate is solubilized with 200 μl of 0.04 N HCl in isopropanol. Absorbance is measured at a wavelength of 595 nm and at a reference wavelength of 655 nm using a Bio-Rad Model 3550 Microplate Reader. Preferably, all tests are run in duplicate for each dose level.
# (§2) The EZED50 computer program estimates the concentration of agent that inhibits cell growth by 50% as compared to the control cells. This is termed the IC50 and is determined by curve fitting test data using the following four logistic equation. [formula]
# (§3) Inhibitory assay testing is also used to determine enhanced therapeutic effects from combining A3 receptor antagonists with other tumor inhibiting agents. The inhibitory cell growth assays are run with and without selected concentrations of A3 receptor antagonists. An enhanced therapeutic effect is present when the IC50 of the tumor inhibiting agent is lower with the A3 receptor antagonist.
# (§4) Quantitatively, the enhancement factor (EF) is calculated by dividing the IC50 value of the tumor inhibiting agent for a tumor cell line by the IC50 value of the agent with A3 receptor antagonist for the same cell line: [formula]
# [2] = system: human colon carcinoma HT29 cell line; assay: MTT growth inhibitory assay, HT29; type: cell-based
# Procedure: as §1, §2, §3, §4
# [3] = system: human lung carcinoma SKMES; assay: MTT growth inhibitory assay, SKMES; type: cell-based
# Procedure: as §1, §2, §3, §4
# [4] = target: T2, P-gp drug efflux activity in HeL023 cells (Homo sapiens, UniProt P08183); assay: Rhodamine 123 efflux assay, HeL023 cells; type: cell-based; conditions: Rh123 efflux, concentrations of Table 11 (MRE3008F20 10 μM)
# T2 construct: nearly all (100±1%) the cells expressing high level of functional P-gp; endogenous in cells; host or cells: HeL023 human erythroleukemia cells
# Procedure: 5×10^5 cells from each subline were loaded with 50 ng/ml of rhodamine 123 for 30 minutes at 37° C. in medium. The cells were washed and resuspended in dye-staining agent free medium for 3 hours at 37° C. to allow rhodamine 123 efflux. The cells were then washed twice and the fluorescence of intracellular rhodamine 123 were analysed with Flow cytometer (residual fluorescence FRES). The fluorescence was compared with loaded cells maintained at 4° C. to prevent drug export (maximal fluorescence FMAX). […] Cells from each subline that were not being exposed to rhodamine 123 were used as negative controls.
# Rhodamine 123 (Rh123) retention, a P-gp functional assay, was studied in all cell lines. This assay was performed by incubating cells with Rh123 and determining Rh123 accumulation by measuring its fluorescence. The maximum load of Rh123 (FMAX) was quantified at the end of treatment harvesting the cells and storing them at 4° C. to prevent any active Rh123 efflux . The P-gp drug efflux was allowed incubating Rh123-loaded cells in fresh new medium Rh123-free for 3 hours at 37° C. After this incubation, residual fluorescence (FRES) was measured and compared to FMAX.
# [5] = system: human melanoma A375 cell line; assay: MTT growth inhibitory assay, A375; type: cell-based
# Procedure: as §1, §2, §3, §4
# A375 cells = assay: Flow cytometry (PI) G2/M accumulation and sub-G1 apoptosis, A375; type: cell-based, human; conditions: A375, vindesine 1 nM, G2/M accumulation dose response curve, read-out: SEC50 (dose inducing 50% of the enhancing activity to vindesine)
# Procedure: A375 and NCTC2544 adherent cells were trypsinized, mixed with floating cells, washed with PBS and permeabilised in 70% (vol/vol) ethanol/PBS solution at 4° C. for at least 24 hours. Jurkat, HeL023 and PBMC cells were centrifuged for 10 minutes at 1000×g. The cell pellet was then resuspended and permeabilised in 70% (vol/vol) ethanol/PBS solution at 4° C. for at least 24 hours. The cells were washed with PBS and the DNA was stained with a PBS solution, containing 20 μg/ml of propidium iodide and 100 μg/ml of RNAse, at room temperature for 30 minutes. Cells were analysed by FACScan (Becton-Dickinson) and the content of DNA was evaluated by the Cell-LISYS program (Becton-Dickinson). Cell distribution among cell cycle phases and apoptotic cells was evaluated as previously described (Secchiero et al., 2001). Briefly, the cell cycle distribution is shown as the percentage of cells containing 2n (G1 phase), 4n (G2 and M phases), 4n>x>2n. DNA amount (S phase) judged by propidium iodide staining. The apoptotic population is the percentage of cells with DNA content lower than 2n.
# Cell proliferation and apoptosis are quantified by flow cytometer analysis after propidium-iodide (PI) DNA staining.
# [6] = target: T3, human A3 adenosine receptor (Homo sapiens, UniProt P0DMS8); conditions: read-out: Ki (binding affinity at human A3 adenosine receptor); A375 cells
# T3 sequence (P0DMS8 1-318): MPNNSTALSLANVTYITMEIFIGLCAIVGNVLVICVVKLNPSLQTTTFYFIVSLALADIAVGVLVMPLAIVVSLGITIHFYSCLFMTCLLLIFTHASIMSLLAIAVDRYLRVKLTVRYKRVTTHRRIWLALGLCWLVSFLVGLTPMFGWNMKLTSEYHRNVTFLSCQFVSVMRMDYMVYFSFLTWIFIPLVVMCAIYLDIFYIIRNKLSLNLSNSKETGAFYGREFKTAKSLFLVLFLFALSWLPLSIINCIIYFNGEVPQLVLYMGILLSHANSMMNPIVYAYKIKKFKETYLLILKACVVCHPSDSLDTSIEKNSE
# [7] = Panc-1, A3 antagonist 0.5 μg/ml
# T2 sequence (P08183 whole entry): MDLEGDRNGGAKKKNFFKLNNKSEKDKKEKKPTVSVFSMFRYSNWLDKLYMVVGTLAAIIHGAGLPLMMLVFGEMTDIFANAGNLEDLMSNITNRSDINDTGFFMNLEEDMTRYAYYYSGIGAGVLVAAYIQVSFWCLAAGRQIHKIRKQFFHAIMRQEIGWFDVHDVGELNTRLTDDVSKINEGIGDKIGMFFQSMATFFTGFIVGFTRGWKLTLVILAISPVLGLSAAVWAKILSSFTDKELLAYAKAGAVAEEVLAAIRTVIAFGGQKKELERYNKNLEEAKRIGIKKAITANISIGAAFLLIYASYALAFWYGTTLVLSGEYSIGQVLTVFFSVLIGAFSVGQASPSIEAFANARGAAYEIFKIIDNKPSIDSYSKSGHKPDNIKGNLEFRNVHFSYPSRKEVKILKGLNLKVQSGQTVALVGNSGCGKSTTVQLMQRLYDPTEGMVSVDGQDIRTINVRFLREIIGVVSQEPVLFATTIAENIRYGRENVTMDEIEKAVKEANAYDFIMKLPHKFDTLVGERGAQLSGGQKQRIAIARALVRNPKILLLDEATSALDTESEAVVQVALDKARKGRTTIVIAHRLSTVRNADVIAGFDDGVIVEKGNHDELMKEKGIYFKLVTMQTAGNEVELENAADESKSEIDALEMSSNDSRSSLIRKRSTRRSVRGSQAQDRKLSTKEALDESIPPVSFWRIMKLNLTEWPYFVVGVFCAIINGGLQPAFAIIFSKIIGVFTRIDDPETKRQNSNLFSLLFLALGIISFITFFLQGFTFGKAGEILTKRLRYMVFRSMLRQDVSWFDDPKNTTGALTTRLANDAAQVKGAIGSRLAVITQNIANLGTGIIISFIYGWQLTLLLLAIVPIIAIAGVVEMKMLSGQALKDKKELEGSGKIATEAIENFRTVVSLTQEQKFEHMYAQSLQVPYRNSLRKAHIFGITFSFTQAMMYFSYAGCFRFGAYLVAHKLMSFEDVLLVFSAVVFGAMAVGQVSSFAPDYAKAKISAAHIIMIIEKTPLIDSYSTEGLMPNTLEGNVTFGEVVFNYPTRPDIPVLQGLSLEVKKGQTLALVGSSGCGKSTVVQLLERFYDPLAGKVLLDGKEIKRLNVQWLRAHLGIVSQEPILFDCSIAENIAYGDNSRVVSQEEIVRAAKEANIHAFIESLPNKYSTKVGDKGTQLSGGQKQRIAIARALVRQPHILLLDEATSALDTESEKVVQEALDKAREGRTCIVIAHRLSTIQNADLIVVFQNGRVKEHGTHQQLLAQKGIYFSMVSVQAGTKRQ
# rA2A adenosine receptor, sequence (P30543 whole entry): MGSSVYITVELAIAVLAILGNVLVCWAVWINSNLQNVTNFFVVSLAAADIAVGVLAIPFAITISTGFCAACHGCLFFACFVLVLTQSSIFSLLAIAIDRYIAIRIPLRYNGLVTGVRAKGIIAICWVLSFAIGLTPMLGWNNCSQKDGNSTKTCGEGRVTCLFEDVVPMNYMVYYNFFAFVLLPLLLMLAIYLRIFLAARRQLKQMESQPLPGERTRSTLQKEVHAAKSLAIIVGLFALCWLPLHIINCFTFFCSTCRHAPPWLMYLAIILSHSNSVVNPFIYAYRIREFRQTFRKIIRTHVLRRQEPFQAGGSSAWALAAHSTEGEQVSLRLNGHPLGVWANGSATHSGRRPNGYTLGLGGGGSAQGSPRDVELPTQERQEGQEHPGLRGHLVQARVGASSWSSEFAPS
compound,measurement,setting,value
"CCN(CC)c1ccc(NC(=O)Nc2nc3nn(C)cc3c3nc(-c4ccco4)nn23)cc1 [IL-10, N-1-(4-diethylamino-phenyl)-N′-5-[8-methyl-2-(2-furyl)-pyrazolo[4 ,3-e]1,2,4-triazolo[1,5-c]pyrimidine]-urea]",Ki,rA1 adenosine receptor,580 nM
same,Ki,rA2A adenosine receptor,523 nM
same,IC50,"[1]; Human Pancreatic Cancer Panc-1, read-out: IC50 growth inhibition, agent used separately",3.9 ± 3.3 µg/mL
same,Enhancement Factor for docetaxel,[1]; [7],1.4
same,Enhancement Factor for paclitaxel,[1]; [7],1.7
same,Enhancement Factor for docetaxel,"[2]; HT29, A3 antagonist 0.5 μg/ml",5.5
same,Enhancement Factor for doxorubicin,"[2]; HT29, A3 antagonist 0.5 μg/ml",1.5
same,Enhancement Factor for irinotecan HCl,"[2]; HT29, A3 antagonist 0.5 μg/ml",1.2
same,Enhancement Factor for paclitaxel,"[2]; HT29, A3 antagonist 0.5 μg/ml",2.5
same,IC50,"[2]; HT-29, Human Colon Carcinoma HT29, read-out: IC50 growth inhibition, agent used separately",10 ± 0.7 µg/mL
same,IC50,"[3]; Human Lung Carcinoma SKMES, read-out: IC50 growth inhibition, agent used separately",5.9 ± 0.3 µg/mL
same,Enhancement Factor for docetaxel,"[3]; SKMES, A3 antagonist 0.5 μg/ml",2.8
same,Enhancement Factor for irinotecan HCL,"[3]; SKMES, A3 antagonist 0.5 μg/ml",1.7
same,Enhancement Factor for paclitaxel,"[3]; SKMES, A3 antagonist 0.5 μg/ml",2.8
same,Enhancement Factor for vinblastine,"[3]; SKMES, A3 antagonist 0.5 μg/ml",1.4
same,inhibition of P-gp activity (in words),[4],strong inhibitors of P-gp activity
same,Enhancement Factor for docetaxel,"[5]; A375, A3 antagonist 0.5 μg/ml",8.4
same,Enhancement Factor for paclitaxel,"[5]; A375, A3 antagonist 0.5 μg/ml",3.7
same,Enhancement Factor for docetaxel,"[5]; A375, A3 antagonist 5 μg/ml",2.9
same,Enhancement Factor for paclitaxel,"[5]; A375, A3 antagonist 5 μg/ml, paclitaxel 0.0001-0.05 μg/ml",8.8
same,Enhancement Factor for paclitaxel,"[5]; A375, A3 antagonist 5 μg/ml, paclitaxel 0.0002-0.1 μg/ml",9.2
same,IC50,"[5]; Homo sapiens, A-375, Human Melanoma A375, read-out: IC50 growth inhibition, agent used separately",11.9 ± 0.4 µg/mL
same,inhibition at 5 µg/mL,"[5]; Homo sapiens, A-375, A375, 5 μg/ml, read-out: growth inhibition in the presence of A3 antagonist alone",30 to 45%
same,EC50,"A375 cells; Homo sapiens, A-375",970 ± 100 nM
"CCCCn1cc2c(nc(NC(=O)Nc3ccccc3)n3nc(-c4ccco4)nc23)n1 [MRE 3062F20, 5-N-(4-phenyl-carbamoyl)amino-8-butyl-2 (2furyl)-pyrazolo-[4,3e]-1,2,4triazolo[1,5-c]pyrimidine]",inhibition of P-gp activity (in words),[4],strong inhibitors of P-gp activity
same,Ki,[6],2.3 ± 0.2 nM
same,EC50,A375 cells,430 ± 40 nM

# Source: patent publication US20040067932A1 (priority 2002, published 2004)
